Consider 15 compounds from PubChem BioAssay AID1963867 (Molecular Pharmacology Branch, DTP, NCI, 2024).

SMILES strings stand for the structures. “And” between values parts separate entries of the source, which are not always exact repeats. Equal entries are not always repeated. A value given as a limit tells only on which side of the number the result lay.

The test system of this assay is KRAS-mutant PDC tumor spheroid with HUVEC/MSC, viability. Description: Anticancer human tumor 327498-153-R-J2-PDC patient-derived uterine carcinosarcoma cell line growth inhibition [KRAS2]. To be noted: for viability, T/C: stronger effect = lower value. From the text: Multicellular complex tumor spheroid response to RAS pathway inhibitors in combination with a targeted agents in patient-derived cell lines with oncogenic KRAS variants from multiple cancer types
A high-throughput screen of multi-cell type tumor spheroids was designed to identify active combinations of targeted small molecules and KRAS pathway inhibitors. Complex spheroids include a stromal component modeled by human endothelial cells (HUVEC) and fibroblasts modeled by human mesenchymal stem cells (MSCs). The concentration ranges selected for each drug and investigational agent were based upon clinically achievable concentrations if the clinical Cmax of the agent was known.
Compounds. The drugs and investigational agents: BI-3406 (NSC825286), BAY-293 (NSC824723), batoprotafib (TNO155; NSC825523), sotorasib (AMG 510; NSC818433), MRTX1257 (NSC819558), elimusertib (BAY 1895344; NSC800525), molibresib (GSK525762; NSC774829), temuterkib (LY3214996; NSC803410), venetoclax (NSC766270), alisertib (NSC759677), olaparib (NSC753686), talazoparib (NSC767125), erdafitinib (NSC781556), ipatasertib (NSC767898), cabozantinib (NSC761068), nintedanib (NSC756659), abemaciclib (NSC768073), docetaxel (NSC628503), trametinib (NSC758246), and sapanisertib (NSC764658) were obtained from the National Cancer Institute (NCI) Developmental Therapeutics Program Chemical Repository. The FDA-approved anticancer drug set is available from the Developmental Therapeutics Program. […] The stock solutions were prepared in dimethyl sulfoxide (DMSO, Sigma-Aldrich, St. Louis, MO, cat. D2650) at 800-fold the tested concentration and stored at -70 degrees C prior to their use. All drugs and investigational agents were tested over a range starting from a high concentration at or near the clinical Cmax and decreasing in half-log increments. If the clinical Cmax for an agent had not been determined, the highest concentration tested was 10 microM.
Cell Culture. All cells were maintained in an incubator at 37 degrees C and 5% CO2 with 95% humidity. The PDC lines were cultured according to standard operating procedures established by the NCI PDMR (https://pdmr.cancer.gov/sops/default.htm). Briefly, all PDCs were thawed and cultured in Matrigel-coated flasks prepared with a working solution of 1X Ham's F-12 nutrient mix, without supplementation (Invitrogen, Waltham, MA, cat. 11765054), 100 U/mL penicillin-streptomycin (Invitrogen, cat. 15140122), and 2.5% Matrigel (Corning Inc., Corning, NY, cat. 354248) for the first three passages. All PDCs were cultured in complete DMEM/F-12 media containing advanced DMEM/F-12 (Invitrogen, cat. 12634028), 4.9% defined fetal bovine serum, heat inactivated (HyClone Laboratories Inc., Logan, UT, cat. SH30070.03HI), 389 ng/mL hydrocortisone (Sigma-Aldrich, cat. H4001), 9.7 ng/mL human EGF recombinant protein (Invitrogen, cat. PHG0313), 23.4 microg/mL adenine (Sigma-Aldrich, cat. A2786), 97.3 U/mL penicillin-streptomycin (Invitrogen, cat. 15140122), 1.9 mM L-glutamine (Invitrogen, cat. 25030081), and 9.7 microM Y-27632 dihydrochloride (Tocris Bioscience, Bristol, United Kingdom, cat. 1254). The PDCs were cultured in complete DMEM/F12 media without 9.7 microM Y-27632 dihydrochloride for at least two passages prior to the screen. The established cell line HOP-62 was cultured in RPMI 1640 medium, HEPES (Invitrogen, cat. 22400105) with 10% defined fetal bovine serum (HyClone Laboratories Inc., cat. SH30070.03) and 2 mM L-glutamine (Invitrogen, cat. 25030081). The pooled donor HUVEC were cultured in endothelial cell growth medium 2 (PromoCell, Heidelberg, Germany, cat. C-22011) and the hMSC were cultured in mesenchymal stem cell growth medium 2 (PromoCell, cat. C-28009). For all experiments, HUVEC and hMSC were used at passages </=5, while the malignant cell lines were used at passages </=15. […]
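Note: spheroids exposed to agents for seven days before reading.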
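Throughout, for viability, T/C: 100% = DMSO vehicle wells so lower means fewer viable cells.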

Take `CC(=O)Nc1cccc(-n2c(=O)n(C3CC3)c(=O)c3c(Nc4ccc(I)cc4F)n(C)c(=O)c(C)c32)c1`: the viability, T/C (in general, the ratio of treated to control) by setting is: (compound 0.0001 µM) 97.2% [middle of 5 runs]; (compound 0.000316 µM) 92.1% [middle of 5 runs]; (compound 0.001 µM) 75.5% [middle of 5 runs]; (compound 0.00316 µM) 63.5% [middle of 5 runs]; (compound 0.01 µM) 56.3% [middle of 5 runs]; (compound 0.0316 µM) 36.9% [middle of 5 runs]. For the setting “curve of compound”, the IC50 – broadly, the concentration that gives 50% inhibition – was 11.7 nM [middle of 5 runs].

For the compound `CC(=O)OC12COC1CC(O)C1(C)C(=O)C(O)C3=C(C)C(OC(=O)C(O)C(NC(=O)OC(C)(C)C)c4ccccc4)CC(O)(C(OC(=O)c4ccccc4)C21)C3(C)C` (centres undefined), the viability, T/C was 8.03% [middle of 5 runs] (compound 0.01 µM); 6.44% [middle of 5 runs] (compound 0.0316 µM); 6.83% [middle of 5 runs] (compound 0.1 µM); 7.35% [middle of 5 runs] (compound 0.316 µM); 10.6% [middle of 5 runs] (compound 1 µM); 12.8% [middle of 5 runs] (compound 3.16 µM). For the same compound, the IC50 (curve of compound) was less than 0.01 µM.

With `CC(C)NCC(C(=O)N1CCN(c2ncnc3c2C(C)CC3O)CC1)c1ccc(Cl)cc1` (centres undefined), the viability, T/C (compound 0.0316 µM) was 97.8% [middle of 5 runs]; the viability, T/C (compound 0.1 µM) is 77.2% [middle of 5 runs]; the viability, T/C (compound 0.316 µM) is 63.1% [middle of 5 runs]; the viability, T/C (compound 1 µM) is 48.3% [middle of 5 runs]; the viability, T/C (compound 3.16 µM) was 37.9% [middle of 5 runs]; the viability, T/C (compound 10 µM) was 25.4% [middle of 5 runs]. Under “curve of compound”, the IC50 was 982 nM [middle of 5 runs].

Regarding `CC(C)n1nc(-c2ccc3oc(N)nc3c2)c2c(N)ncnc21`, the viability, T/C is 99.8% [middle of 5 runs] (compound 0.000316 µM); 92.1% [middle of 5 runs] (compound 0.001 µM); 77.7% [middle of 5 runs] (compound 0.00316 µM); 49.9% [middle of 5 runs] (compound 0.01 µM); 16% [middle of 5 runs] (compound 0.0316 µM); 9.59% [middle of 5 runs] (compound 0.1 µM). In addition, the IC50 (curve of compound) was 9.11 nM [middle of 5 runs].

Consider `CC1(C)CCC(CN2CCN(c3ccc(C(=O)NS(=O)(=O)c4ccc(NCC5CCOCC5)c([N+](=O)[O-])c4)c(Oc4cnc5[nH]ccc5c4)c3)CC2)=C(c2ccc(Cl)cc2)C1`, for which the viability, T/C is, setting by setting: (compound 0.0316 µM) 101% [middle of 5 runs]; (compound 0.1 µM) 98.9% [middle of 5 runs]; (compound 0.316 µM) 99.3% [middle of 5 runs]; (compound 1 µM) 97.8% [middle of 5 runs]; (compound 3.16 µM) 74.3% [middle of 5 runs]; (compound 10 µM) 15.3% [middle of 5 runs]. Further, under “curve of compound”, the IC50 was 4.81 µM [middle of 5 runs].

For `CC1OCC2(CCN(c3cnc(Sc4ccnc(N)c4Cl)c(N)n3)CC2)C1N` (centres undefined), the viability, T/C by setting is: (compound 0.0316 µM) 87.3% and 88.9% and 86.3%; (compound 0.1 µM) 75.4% [middle of 19 runs]; (compound 0.316 µM) 59.2% [middle of 19 runs]; (compound 10 µM) 31.2% [middle of 19 runs]. Further, the IC50 is 544 nM [middle of 5 runs] (compound alone, run of 07/19/2021); 499 nM [middle of 6 runs] (compound alone, run of 07/26/2021); 1.05 µM [middle of 5 runs] (curve of compound).

Take `CCN1CCN(Cc2ccc(Nc3ncc(F)c(-c4cc(F)c5nc(C)n(C(C)C)c5c4)n3)nc2)CC1`: the viability, T/C (compound 0.00316 µM) was 88.7% [middle of 5 runs]; the viability, T/C (compound 0.01 µM) is 81.7% [middle of 5 runs]; the viability, T/C (compound 0.0316 µM) was 65.9% [middle of 5 runs]; the viability, T/C (compound 0.1 µM) is 61% [middle of 5 runs]; the viability, T/C (compound 0.316 µM) was 59.6% [middle of 5 runs]; the viability, T/C (compound 1 µM) was 58.9% [middle of 5 runs]. Besides, the IC50 (curve of compound) is greater than 1 µM.

In the case of `CCNC(=O)CC1N=C(c2ccc(Cl)cc2)c2cc(OC)ccc2-n2c(C)nnc21` (centres undefined), the viability, T/C (compound 0.0316 µM) is 102% [middle of 5 runs]; the viability, T/C (compound 0.1 µM) is 95.9% [middle of 5 runs]; the viability, T/C (compound 0.316 µM) is 77.6% [middle of 5 runs]; the viability, T/C (compound 1 µM) is 64.8% [middle of 5 runs].

In the case of `CN(C)C/C=C/C(=O)Nc1cc2c(Nc3ccc(F)c(Cl)c3)ncnc2cc1O[C@H]1CCOC1`, the viability, T/C was 99.1% [middle of 5 runs] (compound 0.000316 µM); 97% [middle of 5 runs] (compound 0.001 µM); 95.1% [middle of 5 runs] (compound 0.00316 µM); 104% [middle of 5 runs] (compound 0.01 µM); 100% [middle of 5 runs] (compound 0.0316 µM); 90.8% [middle of 5 runs] (compound 0.1 µM). Further, the IC50 (curve of compound) is greater than 0.1 µM.

As to `COc1cc(Nc2ncc3c(n2)-c2ccc(Cl)cc2C(c2c(F)cccc2OC)=NC3)ccc1C(=O)O`, the viability, T/C (compound 0.0316 µM) is 19.4% [middle of 5 runs]; the viability, T/C (compound 0.1 µM) was 13.1% [middle of 5 runs]; the viability, T/C (compound 0.316 µM) was 11.2% [middle of 5 runs]; the viability, T/C (compound 1 µM) was 12.1% [middle of 5 runs]; the viability, T/C (compound 3.16 µM) was 12.5% [middle of 5 runs]; the viability, T/C (compound 10 µM) was 14.5% [middle of 5 runs]. Further, the IC50 (curve of compound) was less than 0.0316 µM.

Consider `COc1cc(OC)cc(N(CCNC(C)C)c2ccc3ncc(-c4cnn(C)c4)nc3c2)c1`, for which the viability, T/C reads like this: (compound 0.0316 µM) 73.7% [middle of 5 runs]; (compound 0.1 µM) 71.3% [middle of 5 runs]; (compound 10 µM) 0.42% [middle of 5 runs].

Take `COc1cc2nccc(Oc3ccc(NC(=O)C4(C(=O)Nc5ccc(F)cc5)CC4)cc3)c2cc1OC`: the viability, T/C is, setting by setting: (compound 0.0316 µM) 95.8% [middle of 5 runs]; (compound 0.1 µM) 94.9% [middle of 5 runs]; (compound 0.316 µM) 97.2% [middle of 5 runs].

With `Cn1nccc1Nc1nccc(-c2cc3c(s2)C(C)(C)N(CCN2CCOCC2)C3=O)n1`, the viability, T/C was 101% [middle of 5 runs] (compound 0.0316 µM); 96.8% [middle of 5 runs] (compound 0.1 µM); 79.2% [middle of 5 runs] (compound 0.316 µM); 69.1% [middle of 5 runs] (compound 1 µM); 57.6% [middle of 5 runs] (compound 3.16 µM); 43.9% [middle of 5 runs] (compound 10 µM). The IC50 (curve of compound) is 5.75 µM [middle of 5 runs].

For `Cn1ncnc1[C@H]1c2n[nH]c(=O)c3cc(F)cc(c23)N[C@@H]1c1ccc(F)cc1`, the viability, T/C was 103% [middle of 5 runs] (compound 0.000316 µM); 99% [middle of 5 runs] (compound 0.001 µM); 94.2% [middle of 5 runs] (compound 0.00316 µM); 81.5% [middle of 5 runs] (compound 0.01 µM); 42.4% [middle of 5 runs] (compound 0.0316 µM); 22.4% [middle of 5 runs] (compound 0.1 µM). Besides, the IC50 (curve of compound) is 25.3 nM [middle of 5 runs].

Take `O=C(c1cc(Cc2n[nH]c(=O)c3ccccc23)ccc1F)N1CCN(C(=O)C2CC2)CC1`: the viability, T/C is, setting by setting: (compound 0.0316 µM) 108% [middle of 5 runs]; (compound 0.1 µM) 99.3% [middle of 5 runs]; (compound 0.316 µM) 93% [middle of 5 runs]; (compound 1 µM) 81.6% [middle of 5 runs]; (compound 3.16 µM) 41.5% [middle of 5 runs]; (compound 10 µM) 18.4% [middle of 5 runs]. For the setting “curve of compound”, the IC50 was 2.58 µM [middle of 5 runs].
